The values below come from US10501460B2, “Heterocyclic compounds and uses thereof” (Plexxikon Inc., priority 2013, dated 2019).

Each structure is given as a SMILES string.

As a reminder, the IC50 is the concentration that gives 50% inhibition.

Assay [1] has as its system MV-4-11. The assay is described as follows: Oncology cell growth assay MV-4-11 (CellTiter Glo, 72 hours). The format is cell-based. The conditions noted are these: Homo sapiens, MV4-11, 72 h; MV-4-11 cell growth inhibitory activity, 3d. In short, it runs like this: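 MV-4-11 cells (MLL-AF4 AML) exposed 72 h to 8-point 1:3 titration, top final 10 μM, 0.2% DMSO. CellTiter Glo luminescence as cell-number readout, normalized to DMSO controls; pIC50 from four-parameter fit.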
In general terms: Cellular ATP, detected with luciferase, serves as a proxy for viable cell number.

For assay [2], the system named is bromodomain. Description: Bromodomain cell assays of Example 40 (at least one of them). In kind it is cell-based. The conditions noted are these: in at least one of the bromodomain cell assays described in Example 40. The procedure, abridged:
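Growth inhibition: 3000 MV-4-11, MOLM-13, MM.1S or neuroblastoma cells/well got an 8-point 1:3 series from 10 μM top (0.2% DMSO) for 72 h, then CellTiter-Glo luminescence. Myc reporter: MV-4-11 with E-box firefly luciferase, 24 h exposure, One-Glo luminescence plus CellTiter-Fluo cell count. pIC50 from four-parameter fit.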

Assay [3] has as its target T1, BRD4-BD1 (44-164) (Homo sapiens, UniProt O60885).
T1 construct: BRD4-BD1 (44-164); made in house; host or cells: E. coli BL21-CodonPlus (DE3)
The assay is described as follows: Alphascreen binding assay BRD4-BD1 (BRD4 biochemical inhibitory activity). The conditions noted are these: read-out: Biochemical activity (IC50 μM) BRD4(1) H4. How it is done: Binding of compounds of formula (I) with bromodomain 2, 3 4 was assessed using Alphascreen binding assay. The inhibition of the interaction between bromodomain and its acetylated target protein (Filippakopoulos P et al. 2012) was measured quantitatively using recombinant BRD proteins, an acetylated Histone 4 peptide and AlphaScreen™ technology. In absence of inhibition the BRD protein bound to AlphaScreen™ nickel chelate acceptor beads can interact with the acetylated Histone 4 peptide which is immobilized by the AlphaScreen™ Streptavidin coated beads. This interaction brings donor and acceptor beads in proximity. The close proximity allows the singlet oxygen produced by laser excitation of the donor beads to reach the acceptor beads and generate a luminescence signal. BRD inhibitors result in a decrease in the proximity signal through an inhibition of the BRD—acetylated peptide interaction.
Recombinant human bromodomains containing the N-terminal bromodomain (BRD2-BD1 (71-194), BRD3-BD1 (24-144) and BRD4-BD1 (44-164)) or dual bromodomains (BRD4-BD12 (1-477), BRD4-BD12 (1-472)) were prepared and purified as described in protein expression and purification session. The peptide is human Histone H41-21K5AcK8AcK12AcK16Ac-Biotin (Anaspec Calif., USA).
Protocol for BRD2, BRD3 and BRD4 assay: All components are prepared in buffer composed of 50 mM HEPES pH 7.5, 100 mM NaCl, 0.01% bovine serum albumin (“BSA”), 0.01% Triton X-100, 2 mM dithiothreitol (“DTT”). 7 μL of Bromodomain protein and 7 μL of peptide are added to wells containing 1 μL of various concentrations of test compounds of formula (I) or DMSO vehicle in an Alphaplate (PerkinElmer Ga., USA) and incubated for 1 hour at room temperature. 4 μL donor and acceptor bead mixture is then added with final concentrations of 7.5 μg/ml. 30 minutes after bead addition, Alpha signal is read on the Envision spectrometer ([…]Ex 680 nm, […]Em 520-620 nm). Final concentrations of bromodomain proteins and peptide are as shown below.
All data was normalized to the mean of 16 high and 16 low control wells on each plate. A four parameter curve fit of the following formula was then applied: Y=a+(b−a)/(1+(x/c)^d) Where ‘a’ is the minimum, ‘b’ is the maximum, ‘c’ is the pIC50 and ‘d’ is the Hill slope. Protein Expression and Purification
Recombinant human bromodomains containing the N-terminal bromodomain (BRD2-BD1 (71-194), BRD3-BD1 (24-144) and BRD4-BD1 (44-164)) or dual bromodomains (BRD4-BD12 (1-477), BRD4-BD12 (1-472)) were expressed in E. coli cells (in a modified pET vector) with an N-terminal six-His tag and purified using a combination of both IMAC (Ni-affinity) and size exclusion chromatography steps.
Recombinant BRD proteins were expressed using the E. coli strain BL21-CodonPlus (DE3) (Agilent Technologies Calif., USA). Cells were grown in Terrific Broth (TB) media to an OD600 of 1.2 at 37° C. at which temperature was reduced to 25° C., protein was induced with 1.0 mM ispropyl-β-D-thiogalactopyranoside (“IPTG”) for 12-18 hours and harvested by centrifugation at 8000×g for 20 minutes. Cells were re-suspended in 0.1M K2PO4 pH 8.0, 250 mM NaCl, 10% Glycerol, 0.75% NP-40, 25 mM Imidazole, 5 mM beta-mercaptoethanol (“BME”) with 0.2 mg/ml Lysosyme, 2.0 mM phenylmethanesulfonyl fluoride (“PMSF”), 25 μg/ml DNAse I, incubated on ice for 30 minutes and lyzed with a cell disruptor (MicroFluidics Mass., USA). The lysate was clarified by centrifugation at 20,000×g for 2 hours. The protein was captured with Ni-NTA resin (Life Technologies, USA). Contaminating proteins were washed off with 25 mM Tris-HCl pH 8.3, 250 mM NaCl, 12% Glycerol and 50 mM Imidazole. Following 3× wash steps, protein was eluted step wise using a 50 mM HEPES pH 7.5, 500 mM NaCl and 400 mM Imidazole. The protein was further purified using Gel Filtration column 26/600 Superdex 200 (GE Biosciences NJ, USA) in 50 mM HEPES pH 7.5, 250 mM NaCl. The protein was aliquoted and flash-frozen in liquid Nitrogen. […]
Background: Alpha assays give light when donor and acceptor beads are brought close together.

With `Cc1noc(C)c1-c1cnc2ccn(S(=O)(=O)c3ccc(Cl)cc3)c2c1` [P-0053, 4-[1-(4-chlorophenyl)sulfonylpyrrolo[3,2-b]pyridin-6-yl]-3,5-dimethyl-isoxazole], the IC50 in assay [1] was 1 to 10 µM; in assay [2], less than 10 µM; in assay [3] it was 1 to 10 µM.

With `Cc1noc(C)c1-c1cnc2ccn(S(=O)(=O)c3cnn(C(F)F)c3)c2c1` [P-0054, 4-[1-[1-(difluoromethyl)pyrazol-4-yl]sulfonylpyrrolo[3,2-b]pyridin-6-yl]-3,5-dimethyl-isoxazole], the IC50 in assay [1] was 1 to 10 µM; in assay [2], less than 10 µM; in assay [3], 1 to 10 µM.

In the case of `Cc1noc(C)c1-c1cnc2ccn(S(=O)(=O)c3cccs3)c2c1` [P-0055, 3,5-dimethyl-4-[1-(2-thienylsulfonyl)pyrrolo [3,2-b]pyridin-6-yl]isoxazole], the values for the half-maximal inhibitory concentration (IC50) in assay [1], in assay [2] and in assay [3] were 1 to 10 µM, less than 10 µM and 1 to 10 µM, respectively.

For the compound `Cc1noc(C)c1-c1cnc2ccn(S(=O)(=O)c3cccc(F)c3)c2c1` [P-0056, 4-[1-(3-fluorophenyl)sulfonylpyrrolo[3,2-b]pyridin-6-yl]-3,5-dimethyl-isoxazole], the IC50 was 1 to 10 µM in assay [1], less than 10 µM in assay [2] and 1 to 10 µM in assay [3].

For the compound `Cc1noc(C)c1-c1cnc2ccn(S(=O)(=O)c3cccc(Cl)c3)c2c1` [P-0057, 4-[1-(3-chlorophenyl)sulfonylpyrrolo[3,2-b]pyridin-6-yl]-3,5-dimethyl-isoxazole], the figures for the concentration for half-maximal inhibition (IC50) in assay [1], in assay [2] and in assay [3] were no more than 1 µM, less than 10 µM and 1 to 10 µM, respectively.

As to `Cc1nn(C(F)F)cc1S(=O)(=O)n1ccc2ncc(-c3c(C)noc3C)cc21` [P-0058, 4-[1-[1-(difluoromethyl)-3-methyl-pyrazol-4-yl]sulfonylpyrrolo[3,2-b]pyridin-6-yl]-3,5-dimethyl-isoxazole], the IC50 in assay [1] was 1 to 10 µM; in assay [2], less than 10 µM; in assay [3] it was 1 to 10 µM.

In the case of `Cc1csc(S(=O)(=O)n2ccc3ncc(-c4c(C)noc4C)cc32)c1` [P-0059, 3,5-dimethyl-4-[1-[(4-methyl-2-thienyl)sulfonyl]pyrrolo[3,2-b]pyridin-6-yl]isoxazole], the concentration for half-maximal inhibition (IC50) in assay [1] is 1 to 10 µM; in assay [2], less than 10 µM; in assay [3], 1 to 10 µM.

With `Cc1noc(C)c1-c1cnc2ccn(S(=O)(=O)c3cccc(OC(F)F)c3)c2c1` [P-0061, 4-[1-[3-(difluoromethoxy)phenyl]sulfonylpyrrolo [3,2-b]pyridin-6-yl]-3,5-dimethyl-isoxazole], the IC50 is 1 to 10 µM in assay [1], less than 10 µM in assay [2] and 1 to 10 µM in assay [3].

As to `[2H]C([2H])([2H])n1cc(CC2CCC(F)(F)CC2)c2cc(-c3c(C)noc3C)cnc21` [P-0079, 4-[3-[(4,4-difluorocyclohexyl)methyl]-1-(trideuteriomethyl)pyrrolo[2,3-b]pyridin-5-yl]-3,5-dimethyl-isoxazole], the IC50 in assay [1] is 1 to 10 µM; in assay [2] it was less than 10 µM; in assay [3] it was no more than 1 µM.

Consider `[2H]C([2H])([2H])n1cc(C(OC)C2CCC(F)(F)CC2)c2cc(-c3c(C)noc3C)cnc21` (stereo not drawn) [P-0080, 4-[3-[(4,4-difluorocyclohexyl)-methoxy-methyl]-1-(trideuteriomethyl)pyrrolo[2,3-b]pyridin-5-yl]-3,5-dimethyl-isoxazole], for which the IC50 in assay [1] was no more than 1 µM; in assay [2], less than 10 µM; in assay [3], no more than 1 µM.

As for `Cc1noc(C)c1-c1cnc2c(-c3cccnc3)c[nH]c2c1` [P-0083, 3,5-dimethyl-4-[3-(3-pyridyl)-1H-pyrrolo[3,2-b]pyridin-6-yl]isoxazole], the concentration for half-maximal inhibition (IC50) in assay [1] was 1 to 10 µM; in assay [2] it was less than 10 µM; in assay [3] it was 1 to 10 µM.

With `Cc1noc(C)c1-c1cnc2[nH]cc(C(=O)C3CCSCC3)c2c1` [P-0091, [5-(3,5-dimethylisoxazol-4-yl)-1H-pyrrolo[2,3-b]pyridin-3-yl]-tetrahydrothiopyran-4-yl-methanone], the figures for the IC50 in assay [1], in assay [2] and in assay [3] were 1 to 10 µM, less than 10 µM and no more than 1 µM, respectively.

Regarding `[2H]C([2H])([2H])n1cc(CC2CCN(C(=O)OCc3ccccc3)CC2)c2cc(-c3c(C)noc3C)cnc21` [P-0092, benzyl 4-[[5-(3,5-dimethylisoxazol-4-yl)-1-(trideuteriomethyl)pyrrolo[2,3-b]pyridin-3-yl]methyl]piperidine-1-carboxylate], the results for the IC50 in assay [1], in assay [2] and in assay [3] were 1 to 10 µM, less than 10 µM and no more than 1 µM, respectively.

`Cc1noc(C)c1-c1cnc2[nH]cc(C=C3CC[S+]([O-])CC3)c2c1` (stereo not drawn) [P-0093, 4-[[5-(3,5-dimethylisoxazol-4-yl)-1H-pyrrolo[2,3-b]pyridin-3-yl]methylene]thiane 1-oxide]: the values for the IC50 in assay [1], in assay [2] and in assay [3] were 1 to 10 µM, less than 10 µM and 1 to 10 µM, respectively.

Consider `Cc1noc(C)c1-c1cnc2c(c1)c(C=C1CCS(=O)(=O)CC1)cn2S(=O)(=O)c1ccccc1` [P-0097, 4-[[1-(benzenesulfonyl)-5-(3,5-dimethylisoxazol-4-yl)pyrrolo[2,3-b]pyridin-3-yl]methylene]thiane 1,1-dioxide], for which the figures for the half-maximal inhibitory concentration (IC50) in assay [1], in assay [2] and in assay [3] were 1 to 10 µM, less than 10 µM and 1 to 10 µM, respectively.

For `Cc1noc(C)c1-c1cnc2[nH]cc(C=C3CCS(=O)(=O)CC3)c2c1` [P-0099, 4-[[5-(3,5-dimethylisoxazol-4-yl)-1H-pyrrolo[2,3-b]pyridin-3-yl]methylene]thiane 1,1-dioxide], the half-maximal inhibitory concentration (IC50) in assay [1] is 1 to 10 µM; in assay [2], less than 10 µM; in assay [3] it was 1 to 10 µM.

For `Cc1noc(C)c1-c1cnc2c(c1)c(CC1CC3CCC1C3)cn2C` (stereo not drawn) [P-0100, 3,5-dimethyl-4-[1-methyl-3-(norbornan-2-ylmethyl)pyrrolo[2,3-b]pyridin-5-yl]isoxazole], the IC50 in assay [1] is 1 to 10 µM; in assay [2], less than 10 µM; in assay [3], 1 to 10 µM.

As for `Cc1noc(C)c1-c1cnc2c(-c3cnc(C4CC4)nc3)cn(S(=O)(=O)c3ccccc3)c2c1` [P-0102, 4-[1-(benzenesulfonyl)-3-(2-cyclopropylpyrimidin-5-yl)pyrrolo[3,2-b]pyridin-6-yl]-3,5-dimethyl-isoxazole], the half-maximal inhibitory concentration (IC50) is 1 to 10 µM in assay [1], less than 10 µM in assay [2] and 1 to 10 µM in assay [3].
